This is an account of results in patent US20230303712A1, “METHODS OF TREATING GLIOBLASTOMA” (Ramot at Tel-Aviv University Ltd., priority 2020, published 2023).

The target in one data set is T1, E-Selectin (Homo sapiens, UniProt P16581).
T1 sequence (P16581 22-610): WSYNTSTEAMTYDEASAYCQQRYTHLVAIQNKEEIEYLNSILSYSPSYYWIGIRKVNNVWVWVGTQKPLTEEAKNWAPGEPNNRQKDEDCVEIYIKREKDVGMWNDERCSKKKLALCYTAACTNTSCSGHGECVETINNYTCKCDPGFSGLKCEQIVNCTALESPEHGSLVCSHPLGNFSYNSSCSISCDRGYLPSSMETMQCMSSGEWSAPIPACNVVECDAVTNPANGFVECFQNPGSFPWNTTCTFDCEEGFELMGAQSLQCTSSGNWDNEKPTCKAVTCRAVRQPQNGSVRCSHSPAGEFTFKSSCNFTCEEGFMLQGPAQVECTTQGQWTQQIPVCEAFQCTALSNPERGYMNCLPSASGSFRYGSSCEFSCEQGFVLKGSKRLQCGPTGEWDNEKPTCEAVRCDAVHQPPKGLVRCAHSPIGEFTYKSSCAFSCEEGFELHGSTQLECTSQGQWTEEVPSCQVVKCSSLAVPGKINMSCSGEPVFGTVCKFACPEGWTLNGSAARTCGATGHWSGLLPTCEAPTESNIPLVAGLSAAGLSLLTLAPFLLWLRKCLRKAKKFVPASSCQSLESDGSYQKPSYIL
Particulars: cited from earlier work.

The test system of the next data set is PD-GB4 tumors. The experiment in a line: Local (intraventricular cannula) SELPi treatment in PD-GB PDX model. It counts as in vivo, SCID mice. As to the method: Tumor volume was evaluated by MRI. […] Twelve days post cell inoculation, 3 mice per group were euthanized and brain were resected and further processed for histology analysis. […] Brain cannulas (NBT) were implanted intraventricularly in the co-lateral hemisphere and the mice were treated stereotactically via the cannulas (1 µl at 0.2 µl/min flow rate) with PBS, 2 mg/kg SELPi dissolved in DMSO or vehicle (DMSO). Three weeks post cell-inoculation, the mice were euthanized, the cannulas were removed, and tumor volume was evaluated by MRI (MR solutions). Brains were resected for immunostaining.
MRI imaging. Tumor bearing mice were imaged at the Sackler Cellular & Molecular Imaging Center (SCMIC), Tel Aviv University. Mice were anesthetized by ketamine (150 mg/kg) and xylazine (12 mg/kg) injected IP. T1 with contrast agent (Magnetol, Gd-DTPA, Soreq M.R.C. Israel Radiopharmaceuticals) and T2 weighted images were taken by 4.7T MRI - MRS 4000™ (MR solutions).

Another data set has as its target T2, P-Selectin (Homo sapiens, UniProt P16109).
T2 sequence (P16109 42-830): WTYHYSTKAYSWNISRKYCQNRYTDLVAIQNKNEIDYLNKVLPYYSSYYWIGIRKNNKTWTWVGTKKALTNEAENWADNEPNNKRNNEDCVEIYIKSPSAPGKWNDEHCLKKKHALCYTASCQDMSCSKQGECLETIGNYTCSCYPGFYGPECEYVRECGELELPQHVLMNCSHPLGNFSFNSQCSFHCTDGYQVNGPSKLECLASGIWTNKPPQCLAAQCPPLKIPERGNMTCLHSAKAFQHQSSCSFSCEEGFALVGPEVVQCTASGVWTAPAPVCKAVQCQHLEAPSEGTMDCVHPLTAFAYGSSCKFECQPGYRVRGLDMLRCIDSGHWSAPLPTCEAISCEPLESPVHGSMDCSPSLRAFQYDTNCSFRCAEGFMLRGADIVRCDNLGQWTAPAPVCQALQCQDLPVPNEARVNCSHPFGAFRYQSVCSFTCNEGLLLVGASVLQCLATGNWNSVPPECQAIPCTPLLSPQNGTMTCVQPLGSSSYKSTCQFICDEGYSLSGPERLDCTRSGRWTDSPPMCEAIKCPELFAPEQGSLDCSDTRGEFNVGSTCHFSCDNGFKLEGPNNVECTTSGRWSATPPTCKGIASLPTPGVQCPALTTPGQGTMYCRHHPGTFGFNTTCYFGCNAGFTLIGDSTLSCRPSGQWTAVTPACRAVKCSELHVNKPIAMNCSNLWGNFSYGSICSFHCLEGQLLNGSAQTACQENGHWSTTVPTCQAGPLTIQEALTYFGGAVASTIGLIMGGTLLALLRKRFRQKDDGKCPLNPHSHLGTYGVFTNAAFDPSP
Particulars: cited from earlier work.

A further data set concerns U251 tumors. Description: SELPi treatment in human U251 GB model. The format is in vivo, SCID mice. As to the method:
SELPi (0.8 mg/ml) was dissolved in DMSO 0.01%), polyethyleneglycol (93.2 mg/ml), Tween-80 (14.8 mg/ml), and DDW. Mice were treated intravenously (IV) twice a week with PBS, 16 mg/kg SELPi or vehicle (0.01% DMSO, 93.2 mg/ml polyethyleneglycol and 14.8 mg/ml Tween-80 in DDW). Tumor development was followed by monitoring the fluorescence intensity using the CRI Maestro™ imaging system.
Intravital imaging. The CRI Maestro™ non-invasive fluorescence imaging system was used to follow tumor progression in mice bearing mCherry- or iRFP- labeled U251 tumors. Mice were anesthetized by ketamine (150 mg/kg) and xylazine (12 mg/kg) injected IP, and were placed inside the imaging system. Multispectral image-cubes were used through 550-800 nm spectral range in 10 nm steps using excitation (575-605 nm) and emission (645 nm longpass) filter set. Mice autofluorescence and background signals were eliminated by spectral analysis and by applying a linear unmixing algorithm.

The nature of data set [1]: Blood chemistry and blood count after systemic SELPi. It counts as in vivo, c57/BL mice. Particulars: single IV dose 16 mg/kg, healthy mice, 24 h. As to the method: To test the effect of SELPi treatment in vivo on mice blood chemistry and blood count, c57/BL mice were injected with 16 mg/kg SELPi IV. Twenty-four hours following injecting, mice were euthanized and blood was collected. Blood samples were analyzed by AML Ltd (Herzliya, Israel). For all models, 50 × 10^3 GB cells were stereotactically injected in 5 µl at 1 µl/min flow rate. Injection coordination relative to the mouse Bregma point were: 2 mm lateral (left), 0.5 mm anterior, 3.5 mm ventral.

SMILES strings stand for the structures. Entries after “also recorded” stand apart in the source; their conditions may differ.

What is called IC50 is the point on the concentration scale where inhibition reaches its midpoint. Regarding `COc1ccc(C2CC(c3c(O)cc(C)oc3=O)=NCCS2)c(OC)c1` (stereo not shown) [SELPi, 3-[7-(2,4-Dimethoxyphenyl)-2,3,6,7-tetrahydro-1,4-thiazepin-5-yl]-4-hydroxy-6-methyl-2H-pyran-2-one], the “inhibiting effect on E-Selectin” value on E-Selectin is reported as “no inhibiting effects”. For the same molecule, the “reduction in tumor volume (MRI)” value with PD-GB4 tumors (PD-GB4, 2 mg/kg SELPi intraventricular via cannula, 21 days post injection) is 67%. Besides, the “tumor growth (tumor volume, MRI)” value with PD-GB4 tumors (PD-GB4, local SELPi treatment, day 21) is “delayed growth”. In addition, in the data set with PD-GB4 tumors (PD-GB4 tumors), the CD31 density entry was “reduction”, the Iba1 density result was “reduction”, the “invasion of GB cells” value is given as “reduced” and the “proliferation of GB cells” value is on record as “reduced”. At P-Selectin (P-Selectin inhibition), the IC50 was 1.97 µM. Also, on P-Selectin (in vitro and in vivo), the “blocking of SELP-binding” value was “block SELP-binding”. In the data set with U251 tumors (U251 tumors), the “blood vessel density (CD31)” value is “reduction”, the “invasion of GB cells (H&E)” value is given as “reduced”, the “microglia activation (Iba1)” value is given as “reduction” and the “proliferation of GB cells (Ki-67)” value was “reduced”. Besides, the “tumor growth (fluorescence signal, CRI-Maestro)” value with U251 tumors (iRFP-labeled U251, 16 mg/kg SELPi IV twice a week) is given as “reduced the fluorescence signal; also recorded: delayed tumor growth”. Further, the “complete blood count: blood lymphocytes” value in data set [1] was “increase in the absolute amount of blood lymphocytes”. Moreover, the blood chemistry entry in data set [1] (vs saline, vehicle) is given as “no significant changes”.
